The results in this text go back to KR20110128542A, “Egcg를 유효성분으로 함유하는 쇼그렌 증후군, 베체트 증후군, 강직성척추염 또는 루프스의 예방 또는 치료용 조성물” (가톨릭대학교 산학협력단, priority 2010, dated 2011).

Each structure is given as a SMILES string. Entries after “also recorded” stand apart in the source; their conditions may differ. Bounds are passed on as bounds.

Assay [1] relates to IL-17 produced from Th17 cells (Th17세포). Description: IL-17 production by mouse splenocytes under Th17 differentiation conditions (ELISA of culture medium, 3 days). The assay is classed as cell-based. Conditions: Th17 conditions (anti-CD3, anti-CD28, anti-IFNr, anti-IL-4, TGF beta), EGCG 0, 1, 10, 50 uM, Fig. 1. A general note: ELISA stands for enzyme-linked immunosorbent assay.

The next assay deals with IL-17 mRNA. Description: RT-PCR of IL-17 mRNA in mouse splenocytes under Th17 differentiation conditions. The assay is classed as cell-based. The following applies: EGCG 0, 1, 10, 50 ng/ml, Fig. 2a.
The next assay concerns Foxp3 mRNA. Nature of the assay: RT-PCR of Foxp3 mRNA in mouse splenocytes under Th17 differentiation conditions (Treg activation). Conditions: EGCG 0, 1, 10, 50 ng/ml, Fig. 2b. The assay is classed as cell-based.
The subject of assay [2] is Treg cells (Treg 세포). Description: Treg cells in spleen of lupus syndrome mice, immunostaining (CD4, CD25, Foxp3) and confocal microscopy. The assay is classed as in vivo, mouse. The following applies: EGCG 10uM, intraperitoneal, 10 injections, Fig. 3.
In another assay the test system is Th17 cells (Th17 세포). Description: Th17 cells in spleen of lupus syndrome mice, immunostaining (CD4, IL-17) and confocal microscopy. The following applies: EGCG 10uM, intraperitoneal, 10 injections, confocal microscopy, Fig. 3. The assay is classed as in vivo, mouse.
Assay [3] has as its system Treg cells (Treg 세포). Description: Treg population in splenocytes of lupus syndrome mice under Treg differentiation conditions, FACS (CD4, CD25, Foxp3). The assay is classed as cell-based. The following applies: lupus mouse splenocytes, anti-CD3 2 ug/ml + TGF beta 5ng/ml, EGCG 10ng/ml, 72 h.

With `O=C(O[C@@H]1Cc2c(O)cc(O)cc2O[C@@H]1c1cc(O)c(O)c(O)c1)c1cc(O)c(O)c(O)c1` [EGCG, (-)-epigallocatechin gallate], the “amount of IL-17 cytokine produced” value in assay [1] was “EGCG를 처리하지 않은 군에 비해 현저하게 감소; also recorded: EGCG 농도 의존적으로 IL-17의 생성이 감소”. Further, in the assay on IL-17 mRNA, the “IL-17 expression (mRNA)” value was “농도 의존적으로 점점 감소”. For the same molecule, the “Foxp3 expression (mRNA)” value in the assay on Foxp3 mRNA was “EGCG를 처리하지 않은 군에 비해 현저하게 증가; also recorded: 농도 의존적으로 점점 증가”. For the same molecule, in the assay with Treg cells (Treg 세포) [2] (CD4/CD25 co-expression), the “Treg cell activation in spleen” value is “비장에서 Treg 세포가 활성화 되었음”. The “Foxp3 expression in nucleus, compared with control” value in the assay with Treg cells (Treg 세포) [2] (spleen, confocal microscopy) is on record as “대조군에 비해 많이 발현”. For the same molecule, the “IL-17 expression (degree of Th17 cell differentiation), compared with control” value in the assay with Th17 cells (Th17 세포) is “EGCG를 처리하지 않은 대조군이 처리한 군에 비해 녹색의 IL-17이 더 많이 발현”. Also, the fold induction at 0.01 µg/mL in the assay with Treg cells (Treg 세포) [3] (Splenocyte, printed 'about 10-fold or more', read-out: increase of Treg cells compared with untreated group) is not below 10. In the assay on Treg cells (Treg 세포) [3] (untreated control 2.69, Fig. 4), the Foxp3 expression was 21.57.
